Test system: recombinant NL4-3 virus (Renilla luciferase in nef, Gag P373S; NLRluc) in MT-2 cells
Experiment: whole plant or invertebrate
Assay type: cell-based, HIV
Settings: Renilla, NL43, luciferase activity in cells infected for 4-5 days with NLRluc recombinants, serial dilutions of inhibitor; class symbols (key in Table 1); read-out: EC50
Method in brief: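 Virus from 293T transfection, titered in MT-2 by luciferase. MT-2 (RPMI, 10% HI-FBS) infected ± inhibitor serial dilutions, 4-5 d. Readout: Dual Luciferase premix (lysis:reagent:Stop & Glo 2:1:1), immediate luminescence.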

C=C(C)[C@@H]1CC[C@]2(NC(=O)NCCCN(C)C)CC[C@]3(C)[C@H](CC[C@@H]4[C@@]5(C)CC=C(c6ccc(C(=O)O)cc6)C(C)(C)[C@@H]5CC[C@]43C)[C@@H]12 [Example 10, 4-((1R,3aS,5aR,5bR,7aR,11aS,11bR,13aR,13bR)-3a-(3-(3-(dimethylamino)propyl)ureido)-5a,5b,8,8,11a-pentamethyl-1-(prop-1-en-2-yl)-2,3,3a,4,5,5a,5b,6,7,7a,8,11,11a,11b,12,13,13a,13b-octadecahydro-1H-cyclopenta[a]chrysen-9-yl)benzoic acid] and C=C(C)[C@@H]1CC[C@]2(NC(=O)NCCCCCN(C)C)CC[C@]3(C)[C@H](CC[C@@H]4[C@@]5(C)CC=C(c6ccc(C(=O)O)cc6)C(C)(C)[C@@H]5CC[C@]43C)[C@@H]12 [Example 60, 4-((1R,3aS,5aR,5bR,7aR,11aS,11bR,13aR,13bR)-3a-(3-(5-(dimethylamino)pentyl)ureido)-5a,5b,8,8,11a-pentamethyl-1-(prop-1-en-2-yl)-2,3,3a,4,5,5a,5b,6,7,7a,8,11,11a,11b,12,13,13a,13b-octadecahydro-1H-cyclopenta[a]chrysen-9-yl)benzoic acid] cannot be ordered by EC50: less than 100 nM for the first, less than 100 nM for the second.

C=C(C)[C@@H]1CC[C@]2(NC(=O)Cc3cccnc3)CC[C@]3(C)[C@H](CC[C@@H]4[C@@]5(C)CC=C(c6ccc(C(=O)O)cc6)C(C)(C)[C@@H]5CC[C@]43C)[C@@H]12 [Example 120, benzoic acid, 4-[(1R,3aS,5aR,5bR,7aR,11aS,11bR,13aR,13bR)-2,3,3a,4,5,5a,5b,6,7,7a,8,11,11a,11b,12,13,13a,13b-octadecahydro-5a,5b,8,8,11a-pentamethyl-1-(1-methylethenyl)-3a-[(3-pyridinylacetyl)amino]-1H-cyclopenta[a]chrysen-9-yl]] and C=C(C)[C@@H]1CC[C@]2(NCC(=O)N(C)C)CC[C@]3(C)[C@H](CC[C@@H]4[C@@]5(C)CC=C(c6ccc(C(=O)O)cc6)C(C)(C)[C@@H]5CC[C@]43C)[C@@H]12 [Example 145, 4-((1R,3aS,5aR,5bR,7aR,11aS,11bR,13aR,13bR)-3a-(2-(dimethylamino)-2-oxoethylamino)-5a,5b,8,8,11a-pentamethyl-1-(prop-1-en-2-yl)-2,3,3a,4,5,5a,5b,6,7,7a,8,11,11a,11b,12,13,13a,13b-octadecahydro-1H-cyclopenta[a]chrysen-9-yl)benzoic acid] cannot be ordered by EC50: less than 100 nM for the first, less than 100 nM for the second.

Compared with C=C(C)[C@@H]1CC[C@]2(NCC3CCCN(C(=O)OC(C)(C)C)C3)CC[C@]3(C)[C@H](CC[C@@H]4[C@@]5(C)CC=C(c6ccc(C(=O)O)cc6)C(C)(C)[C@@H]5CC[C@]43C)[C@@H]12 (stereo partly drawn) [Example 153, 4-((1R,3aS,5aR,5bR,7aR,11aS,11bR,13aR,13bR)-3a-((1-(tert-butoxycarbonyl)piperidin-3-yl)methylamino)-5a,5b,8,8,11a-pentamethyl-1-(prop-1-en-2-yl)-2,3,3a,4,5,5a,5b,6,7,7a,8,11,11a,11b,12,13,13a,13b-octadecahydro-1H-cyclopenta[a]chrysen-9-yl)benzoic acid], C=C(C)[C@@H]1CC[C@]2(NC(=O)CN3CCCCC3)CC[C@]3(C)[C@H](CC[C@@H]4[C@@]5(C)CC=C(c6ccc(C(=O)O)cc6)C(C)(C)[C@@H]5CC[C@]43C)[C@@H]12 [Example 122, 4-((1R,3aS,5aR,5bR,7aR,11aS,11bR,13aR,13bR)-5a,5b,8,8,11a-pentamethyl-3a-(2-(piperidin-1-yl)acetamido)-1-(prop-1-en-2-yl)-2,3,3a,4,5,5a,5b,6,7,7a,8,11,11a,11b,12,13,13a,13b-octadecahydro-1H-cyclopenta[a]chrysen-9-yl)benzoic acid] is lower in EC50: greater than 100 nM for the first, less than 100 nM for the second.

C=C(C)[C@@H]1CC[C@]2(NCCN3CCN(C(=O)C4CC4)CC3)CC[C@]3(C)[C@H](CC[C@@H]4[C@@]5(C)CC=C(c6ccc(C(=O)O)cc6)C(C)(C)[C@@H]5CC[C@]43C)[C@@H]12 [Example B62, 4-((1R,3aS,5aR,5bR,7aR,11aS,11bR,13aR,13bR)-3a-((2-(4-(cyclopropanecarbonyl)piperazin-1-yl)ethyl)amino)-5a,5b,8,8,11a-pentamethyl-1-(prop-1-en-2-yl)-2,3,3a,4,5,5a,5b,6,7,7a,8,11,11a,11b,12,13,13a,13b-octadecahydro-1H-cyclopenta[a]chrysen-9-yl)benzoic acid] and C=C(C)[C@@H]1CC[C@]2(NCCF)CC[C@]3(C)[C@H](CC[C@@H]4[C@@]5(C)CC=C(c6ccc(C(=O)O)cc6)C(C)(C)[C@@H]5CC[C@]43C)[C@@H]12 [Example 179, 4-((1R,3aS,5aR,5bR,7aR,11aS,11bR,13aR,13bR)-3a-((2-fluoroethyl)amino)-5a,5b,8,8,11a-pentamethyl-1-(prop-1-en-2-yl)-2,3,3a,4,5,5a,5b,6,7,7a,8,11,11a,11b,12,13,13a,13b-octadecahydro-1H-cyclopenta[a]chrysen-9-yl)benzoic acid] cannot be ordered by EC50: less than 100 nM for the first, less than 100 nM for the second.

CC(C)[C@@H]1CC[C@]2(N)CC[C@]3(C)[C@H](CC[C@@H]4[C@@]5(C)CC[C@H](c6ccc(C(=O)O)cc6)C(C)(C)[C@@H]5CC[C@]43C)[C@@H]12 [Example B3, 4-((1S,3aS,5aR,5bR,7aS,9S,11aS,11bR,13aR,13bR)-3a-amino-1-isopropyl-5a,5b,8,8,11a-pentamethylicosahydro-1H-cyclopenta[a]chrysen-9-yl)benzoic acid] and CC(C)[C@@H]1CC[C@]2(NC(=O)CN3CCS(=O)(=O)CC3)CC[C@]3(C)[C@H](CC[C@@H]4[C@@]5(C)CC[C@H](c6ccc(C(=O)O)cc6)C(C)(C)[C@@H]5CC[C@]43C)[C@@H]12 [Example 130, 4-((1S,3aS,5aR,5bR,7aS,9S,11aS,11bR,13aR,13bR)-3a-(((1,1-dioxido-4-thiomorpholinyl)acetyl)amino)-1-isopropyl-5a,5b,8,8,11a-pentamethylicosahydro-1H-cyclopenta[a]chrysen-9-yl)benzoic acid] cannot be ordered by EC50: less than 100 nM for the first, less than 100 nM for the second.

C=C(C)[C@@H]1CC[C@]2(NC(=O)NCCCN3CCS(=O)(=O)CC3)CC[C@]3(C)[C@H](CC[C@@H]4[C@@]5(C)CC=C(c6ccc(C(=O)O)cc6)C(C)(C)[C@@H]5CC[C@]43C)[C@@H]12 [Example 22, 4-((1R,3aS,5aR,5bR,7aR,11aS,11bR,13aR,13bR)-3a-(((3-(1,1-dioxido-4-thiomorpholinyl)propyl)carbamoyl)amino)-1-isopropenyl-5a,5b,8,8,11a-pentamethyl-2,3,3a,4,5,5a,5b,6,7,7a,8,11,11a,11b,12,13,13a,13b-octadecahydro-1H-cyclopenta[a]chrysen-9-yl)benzoic acid] and C=C(C)[C@@H]1CC[C@]2(Nc3nc(CC)cs3)CC[C@]3(C)[C@H](CC[C@@H]4[C@@]5(C)CC=C(c6ccc(C(=O)O)cc6)C(C)(C)[C@@H]5CC[C@]43C)[C@@H]12 [Example 184B, 4-((1R,3aS,5aR,5bR,7aR,11aS,11bR,13aR,13bR)-3a-(4-ethylthiazol-2-ylamino)-5a,5b,8,8,11a-pentamethyl-1-(prop-1-en-2-yl)-2,3,3a,4,5,5a,5b,6,7,7a,8,11,11a,11b,12,13,13a,13b-octadecahydro-1H-cyclopenta[a]chrysen-9-yl)benzoic acid] cannot be ordered by EC50: less than 100 nM for the first, less than 100 nM for the second.

Same assay, conditions: Renilla, NL43, luciferase activity in cells infected for 4-5 days with NLRluc recombinants, serial dilutions of inhibitor; numeric values; read-out: EC50

In order of rising EC50:
1. C=C(C)[C@@H]1CC[C@]2(NC(=O)NCCCN3CCCC3=O)CC[C@]3(C)[C@H](CC[C@@H]4[C@@]5(C)CC=C(c6ccc(C(=O)O)cc6)C(C)(C)[C@@H]5CC[C@]43C)[C@@H]12 [Example 29, 4-((1R,3aS,5aR,5bR,7aR,11aS,11bR,13aR,13bR)-5a,5b,8,8,11a-pentamethyl-3a-(3-(3-(2-oxopyrrolidin-1-yl)propyl)ureido)-1-(prop-1-en-2-yl)-2,3,3a,4,5,5a,5b,6,7,7a,8,11,11a,11b,12,13,13a,13b-octadecahydro-1H-cyclopenta[a]chrysen-9-yl)benzoic acid]  10 nM
2. C=C(C)[C@@H]1CC[C@]2(NCC3CCCNC3)CC[C@]3(C)[C@H](CC[C@@H]4[C@@]5(C)CC=C(c6ccc(C(=O)O)cc6)C(C)(C)[C@@H]5CC[C@]43C)[C@@H]12 (stereo partly drawn) [Example 175, 4-((1R,3aS,5aR,5bR,7aR,11aS,11bR,13aR,13bR)-5a,5b,8,8,11a-pentamethyl-3a-(piperidin-3-ylmethylamino)-1-(prop-1-en-2-yl)-2,3,3a,4,5,5a,5b,6,7,7a,8,11,11a,11b,12,13,13a,13b-octadecahydro-1H-cyclopenta[a]chrysen-9-yl)benzoic acid]  10 nM
3. C=C(C)[C@@H]1CC[C@]2(NCc3ncccc3C(F)(F)F)CC[C@]3(C)[C@H](CC[C@@H]4[C@@]5(C)CC=C(c6ccc(C(=O)O)cc6)C(C)(C)[C@@H]5CC[C@]43C)[C@@H]12 [Example 134, 4-((1R,3aS,5aR,5bR,7aR,11aS,11bR,13aR,13bR)-5a,5b,8,8,11a-pentamethyl-1-(prop-1-en-2-yl)-3a-((3-(trifluoromethyl)pyridin-2-yl)methylamino)-2,3,3a,4,5,5a,5b,6,7,7a,8,11,11a,11b,12,13,13a,13b-octadecahydro-1H-cyclopenta[a]chrysen-9-yl)benzoic acid]  100 nM

Same assay, conditions: luciferase activity in cells infected for 4-5 days with NLRluc recombinants, serial dilutions of inhibitor; class symbols (key in Table 1); read-out: EC50

C=C(C)[C@@H]1CC[C@]2(NC(=O)C(c3ccccc3)N3CCS(=O)(=O)CC3)CC[C@]3(C)[C@H](CC[C@@H]4[C@@]5(C)CC=C(c6ccc(C(=O)O)cc6)C(C)(C)[C@@H]5CC[C@]43C)[C@@H]12 (single isomer, unassigned) [Example 92] and C=C(C)[C@@H]1CC[C@]2(NC(=O)CC(c3cccs3)N3CCS(=O)(=O)CC3)CC[C@]3(C)[C@H](CC[C@@H]4[C@@]5(C)CC=C(c6ccc(C(=O)O)cc6)C(C)(C)[C@@H]5CC[C@]43C)[C@@H]12 (some centres unmarked) [Example 101] cannot be ordered by EC50: less than 100 nM for the first, less than 100 nM for the second.
